The text below walks through data of US10107816B2, “G-protein coupled receptor-associated diagnostics and therapeutics for B-cell chronic lymphocytic leukemia” (THE REGENTS OF THE UNIVERSITY OF CALIFORNIA, priority 2013, dated 2018).

Entries after “also recorded” stand apart in the source; their conditions may differ. Where no end group is shown, it is not given here.

In assay [1] the test system is NK.tert bone marrow-derived stromal cells. In words: Stromal cell proliferation ([3H] thymidine) with conditioned media from indolent CLL cultures. Type of assay: cell-based, human. As to conditions: conditioned media from indolent CLL cells incubated 24 hr with IR284 (100 nM) or VIP. On the procedure:
Mononuclear cells derived from the blood of Indolent CLL patients were grown in tissue culture media (RPMI 1640+10% Heat-Inactivated Fetal Bovine Serum) and incubated for 24 hr in the absence of any drug (“untreated CLL”), in the presence of the phosphodiesterase 4/7 inhibitor IR284 (100 nM) or the VIPR agonist VIP […]. In the 24 hr incubation period products excreted from the cells in response to the treatments accumulate in the media, which is called “conditioned media” (CM). CM was harvested from the cell cultures by subjecting them to centrifugation at 233 rcf for 10 minutes at 4° C. to pellet cells and debris. The liquid portion was removed and used as CM. To assess the impact of CM from the indolent CLL cultures upon the proliferation of bone marrow-derived stromal cells (which make up the supportive microenvironment of CLL in vivo), CM was added to NK.tert bone marrow-derived stromal cells along with [3H] thymidine to assess DNA synthesis/cell proliferation

The test system of assay [2] is CLL cells. Kind of assay: Assay of cellular apoptosis (annexin V/PI flow cytometry) in CLL cells. Type of assay: cell-based, human. As to conditions: for apoptosis in combination with IR284: with PDE inhibitor IR284 (100 nM), compared to IR284 alone. On the procedure:
(§1) FIG. 7 illustrates apoptosis of CLL cells (data from Aggressive and Indolent CLL cells), left panel, and normal B-cells (n=3), right panel, in response to 1 μM VIP+100 nM IR284. Statistical significance, determined by Student's t-test, is shown (*=P<0.05) compared to cells treated only with 100 nM IR284.
(§2) Cycle thresholds (lower value denotes higher expression) normalized to 28S. Statistical significance was determined by Student's t-test and is depicted by (***) for P<0.001 compared to normal. […] Statistical significance was determined by paired t test with (*) P<0.05 compared to IR284 alone.
(§3) Flow cytometry was used to detect annexin V/fluorescein isothiocyanate (FITC) and propidium iodide (PI) staining to determine the apoptotic population of treated cells. CLL-cells or normal PBMC (1,000,000/ml) in […]+10% FBS were incubated for 48 hr in standard culture conditions with or without drugs and then assayed for annexinV/PI staining per manufacturer's protocol using a FACScan (Becton Dickinson Biosciences, San Jose, Calif.) flow cytometer.

In assay [3] the test system is CLL cells. In words: cAMP accumulation assay (cAMP radioimmunoassay). Type of assay: cell-based, human. As to conditions: aggressive CLL cells (n=8); 1 μM VIP + 100 nM IR284, relative to 100 nM IR284 alone; P<0.05. On the procedure: The results are expressed relative to cAMP levels in cells treated only with 100 nM IR284, a PDE4/7 inhibitor. Statistical significance was determined by paired t test and is shown (*=P<0.05) compared to cells treated only with IR284.
as §2
One million CLL-cells or normal PBMC/ml in […] buffer+10% FBS were plated in a 12-well cell culture plate and incubated for 20 min at 37° C. in air plus 5% CO2 with a dual PDE4/7 inhibitor (IR284). VIP or ACTH were then added to the 12-well culture plate and incubated for 10 min at 37° C. in air plus 5% CO2. The cells were then centrifuged at 1200 rpm for 5 min at 4° C. The media was aspirated and 50 μl of 7.5% trichloroacetic acid (TCA) was added to each cell pellet to release cAMP from the cells. The TCA-suspended sample was diluted in 1 ml 10 mM sodium acetate and acetylated with 20 ul triethylamine and 10 ul acetic anhydride. The competitive binding assay consists of 50 μl of diluted, acetylated sample, 25 μl AMP antibody and 25 μl ^125I-labeled cAMP (Perkin Elmer). […]

The test system of another assay is normal B-cells. In words: Assay of cellular apoptosis (annexin V/PI flow cytometry) in normal B-cells. In kind it is cell-based, human. As to conditions: normal B-cells (n=3). On the procedure: as §1, §3
Assay [4] deals with CLL cells. In words: Spontaneous apoptosis of CLL cells (Annexin V surface staining). Type of assay: cell-based, human. The source says:
FIG. 12 illustrates that the peptide hormone insulin-like peptide 3 (INSL3) protects CLL cells from spontaneous apoptosis.

Assay [5] has as its target T1, LGR8 (Homo sapiens, UniProt Q8WXD0).
T1 construct: expressed in transfected cells; host or cells: 293T cells
As to conditions: recombinant LGR8 in 293T cells; cited from earlier work.

Assay [6] has as its system LGR8. The following applies: germ cells; via inhibitory G protein Gi; cited from earlier work.
In assay [7] the test system is arrested oocytes in preovulatory follicles. As to conditions: in vitro and in vivo; cited from earlier work.
The next assay concerns male germ cell. The following applies: in vivo; cited from earlier work.
Where [8] appears, read: indolent CLL cells, with or without VIP or ACTH, with a phosphodiesterase inhibitor.

T1 sequence (Q8WXD0 whole entry): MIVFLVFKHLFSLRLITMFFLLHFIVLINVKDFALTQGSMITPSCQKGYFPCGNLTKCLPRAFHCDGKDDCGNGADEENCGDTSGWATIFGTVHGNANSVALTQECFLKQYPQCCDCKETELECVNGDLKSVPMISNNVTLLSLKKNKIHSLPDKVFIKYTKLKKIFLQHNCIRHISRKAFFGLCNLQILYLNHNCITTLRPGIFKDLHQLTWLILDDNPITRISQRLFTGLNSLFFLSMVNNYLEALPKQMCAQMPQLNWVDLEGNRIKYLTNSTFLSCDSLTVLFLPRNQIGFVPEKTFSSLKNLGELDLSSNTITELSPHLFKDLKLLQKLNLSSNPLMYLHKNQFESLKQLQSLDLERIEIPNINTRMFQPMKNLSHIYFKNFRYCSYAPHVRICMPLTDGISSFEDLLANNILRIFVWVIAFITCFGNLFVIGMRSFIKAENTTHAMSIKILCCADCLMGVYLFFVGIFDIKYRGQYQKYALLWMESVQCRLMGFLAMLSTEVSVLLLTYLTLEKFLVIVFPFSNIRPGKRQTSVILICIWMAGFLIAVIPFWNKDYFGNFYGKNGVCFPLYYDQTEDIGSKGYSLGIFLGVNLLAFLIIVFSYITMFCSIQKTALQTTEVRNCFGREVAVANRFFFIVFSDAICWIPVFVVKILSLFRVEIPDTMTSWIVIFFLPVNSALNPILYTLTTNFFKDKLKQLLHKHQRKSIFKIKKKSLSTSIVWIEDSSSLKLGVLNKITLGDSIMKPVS

As for `COc1ccc(C2=NN(C3CCN(C(=O)N4CCOCC4)CC3)C(=O)C3CC=CCC23)cc1Cl` (stereo not shown) [IR284, (4-(3-chloro-4-methoxyphenyl)-2-(1-morpholine-4-carbonyl)piperadin-4-yl)-4a, 5,8,8a-tetrahydrophthalazin-1(2H)-one], the “proliferation of stromal cells (DNA synthesis)” value in assay [1] is given as “suppressed proliferation”.
In the case of “ACTH: a melanocortin 2 receptor [MC2R] agonist, purchased from GenWay (SYSMEHFRWGKPVGKKRRPVKVYPNGAEDESAEAFPLEF; Corticotropin; UniProt P01189 138-176, looked up)”, the apoptosis entry with CLL cells [2] (aggressive CLL cells, 48 hr) is reported as “promote apoptosis”; with CLL cells [2] (setting [8]) it was “not indolent CLL”. Also, the “apoptosis in combination with IR284” value in the assay on CLL cells [2] (aggressive CLL cells) is “increase apoptosis”.
With “VIP: vasoactive intestinal peptide receptor agonist, purchased from Tocris Bioscience (HSDAVFTDNYTRLRKQMAVKKYLNSILN; ends and bridges not checked; UniProt P01282 125-152, looked up)”, in the assay on CLL cells [3], the cAMP accumulation result is listed as “significantly enhanced”. In addition, the apoptosis result is reported as “induced apoptosis” in the assay on CLL cells [2] (CLL cells, P<0.05, n=3); “increases apoptosis; also recorded: promote apoptosis” in the assay with CLL cells [2] (aggressive CLL cells, 48 hr); “not indolent CLL” in the assay on CLL cells [2] (setting [8]); “does not promote apoptosis” in the assay on normal B-cells. Moreover, the “apoptosis in combination with IR284” value with CLL cells [2] (aggressive CLL cells) is “significantly enhanced; also recorded: increase apoptosis”. In addition, the “proliferation of stromal cells (DNA synthesis)” value in assay [1] is recorded as “suppressed proliferation”.

B1: INSL3: peptide hormone insulin-like peptide 3, LGR8 agonist (peptide, UniProt P51460 21-55; P51460 106-131, looked up)
Insulin-like 3 B chain: LGPAPTPEMREKLCGHHFVRALVRVCGGPRWSTEA
Insulin-like 3 A chain: AAATNPARYCCLSGCTQQDLLTLCPY
Consider B1, for which, in the assay with CLL cells [4], the protection from apoptosis entry is reported as “protects CLL cells from programmed cell death”. The “adenylyl cyclase activation / intracellular cAMP” value with LGR8 [5] is on record as “increases accumulation of intracellular cAMP”. In addition, in the assay with LGR8 [6], the cAMP production entry was “decreases in cAMP production”. For the same molecule, the “meiotic progression of arrested oocytes” value in [7] is given as “initiates meiotic progression”. The “male germ cell apoptosis” value with male germ cell was “suppresses male germ cell apoptosis”.
